Data as given in PMC8603191, “Fragment-based design of selective GPCR ligands guided by free energy simulations” (Chemical communications (Cambridge, England), 2021).
Several values for one entry are separate records, joined by “and”; a condition that tells them apart may be missing. Identical values can stand only once.

Legend:
human A1AR [1] = target: T1, human A1AR (Homo sapiens, UniProt P30542); assay: Radioligand binding assay, displacement of [3H]DPCPX; details: for Free energy of binding (ΔG) A1AR: calculated from experimental binding affinities; for ligand efficiency (LE, binding free energy per heavy atom): A1AR
T1 construct: expressed in transfected cells; host or cells: HEK293 (membrane preparations)
T1 sequence (P30542 1-326): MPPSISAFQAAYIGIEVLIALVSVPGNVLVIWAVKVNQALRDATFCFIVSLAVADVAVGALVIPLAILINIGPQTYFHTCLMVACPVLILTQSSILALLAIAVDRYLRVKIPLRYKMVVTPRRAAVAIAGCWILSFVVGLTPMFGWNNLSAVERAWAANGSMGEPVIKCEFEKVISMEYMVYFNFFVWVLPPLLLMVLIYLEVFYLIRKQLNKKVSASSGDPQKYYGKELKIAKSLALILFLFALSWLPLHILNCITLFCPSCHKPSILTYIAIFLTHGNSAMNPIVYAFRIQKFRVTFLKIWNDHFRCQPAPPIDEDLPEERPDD
Method: (§1) Radioligand binding assays. HEK293 cells expressing the human A1- or A2AARs were cultured in DMEM supplemented with 10% fetal bovine serum, 100 Units/ml penicillin, 100 µg/ml streptomycin, and 2 µmol/ml glutamine. Cells were detached from plates by scraping into cold PBS and centrifuged at 250 g for 5 min. The pellets were resuspended in ice-cold Tris HCl buffer (50 mM, pH 7.4) and then homogenized. After homogenization and suspension, cells were centrifuged at 1000 g for 10 min, and the pellet was discarded.
(§2) The suspension was then re-centrifuged at 20,000 g for 60 min at 4 °C. The pellets were resuspended in buffer containing 3 Units/ml adenosine deaminase and incubated at 37°C for 30 min. The aliquots of membrane preparations were stored at −80°C until the binding experiments. For displacement binding assays, membrane preparations (20 µg proteins/tube) were incubated at 25°C for 60 min with a final concentration of [3H]DPCPX (0.5 nM) and [3H]ZM241385 (1.0 nM) for A1- and A2AARs, respectively, in a mixture containing 50 µL of increasing concentrations of a test ligand in a total assay volume of 200 µL of 50 mM Tris HCl, pH 7.4, containing 10 mM MgCl2. Nonspecific binding was determined using 100 µM of XAC. The reaction was terminated by filtration with GF/B filters using a Brandel 24-channel harvester. Filters were placed in scintillation vials containing 5 ml of Hydrofluor scintillation buffer and counted using a PerkinElmer Tricarb 2810TR liquid scintillation counter. […]
(§3) Table S1. Binding affinities of compounds 1-10 based on displacement of [3H]DPCPX and [3H]ZM241385 at the A1AR and A2AAR, respectively.
(§4) Compound Substituent A1AR A2AAR index […]
(§5) a Ki values are expressed as means ± SEM from (2-4) independent experiments. b Free energy of binding (ΔG) calculated from experimental binding affinities (kcal/mol) / Number of heavy atoms (HA). The ligand efficiency (LE) = −ΔG/HA. c Values from Matricon et al.8
(§6) Table S3. Binding affinities of compounds 11-26 based on displacement of [3H]DPCPX and […]
(§7) a K values are expressed as means ± SEM from (2-4) independent experiments.
(§8) Free energy of binding (ΔG) calculated from experimental binding affinities (kcal/mol) / Number of heavy

human A1AR [2] = assay: as above; details: A1AR versus A2AAR; for A1AR selectivity index: from Ki values; for selectivity for the A1AR: Fig. 1
Method: as §1, §2, §3, §4, §5, §6, §7, §8

human A2AAR = target: T2, human A2AAR (Homo sapiens, UniProt P29274); assay: Radioligand binding assay, displacement of [3H]ZM241385; details: for Free energy of binding (ΔG) A2AAR: calculated from experimental binding affinities; for Ki: displacement of [3H]ZM241385, means ± SEM from 2-4 independent experiments; for ΔΔG Experimental A2AAR: based on Table S3
T2 construct: expressed in transfected cells; host or cells: HEK293 (membrane preparations)
Method: as §1, §2, §3, §4, §5, §6, §7, §8

[3] = compound 1 as reference, based on Table S1
[4] = displacement of [3H]DPCPX, means ± SEM from 2-4 independent experiments
[5] = reference compound 9, based on Table S3
[6] = radioligand binding, Fig. 1, Table S5
[7] = reference compound 5, based on Table S3

T2 sequence (P29274 whole entry): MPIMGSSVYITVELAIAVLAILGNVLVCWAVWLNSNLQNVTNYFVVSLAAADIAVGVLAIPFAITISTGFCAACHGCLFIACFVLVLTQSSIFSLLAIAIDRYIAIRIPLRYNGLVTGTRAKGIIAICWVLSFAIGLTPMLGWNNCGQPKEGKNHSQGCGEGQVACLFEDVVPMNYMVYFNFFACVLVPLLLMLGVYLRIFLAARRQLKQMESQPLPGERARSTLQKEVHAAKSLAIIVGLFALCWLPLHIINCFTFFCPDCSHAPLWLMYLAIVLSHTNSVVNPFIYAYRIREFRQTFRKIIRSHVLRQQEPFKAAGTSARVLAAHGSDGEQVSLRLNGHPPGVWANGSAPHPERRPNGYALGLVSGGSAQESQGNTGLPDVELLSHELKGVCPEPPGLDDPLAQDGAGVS

Row | Compound | Free energy of binding (ΔG) A1AR (human A1AR [1]) [kcal/mol] | ΔΔG Experimental A1AR (human A1AR [1]; [3]) | Ki (human A1AR [1]; [4]) | A1AR selectivity index (human A1AR [2]) | A2AAR selectivity (human A2AAR; A2AAR versus A1AR) [fold] | Free energy of binding (ΔG) A2AAR (human A2AAR) [kcal/mol] | Ki (human A2AAR) [nM] | ΔΔG Experimental A1AR (human A1AR [1]; [5]) | ΔΔG Experimental A2AAR (human A2AAR; reference compound 9) | ligand efficiency (LE, binding free energy per heavy atom) (human A1AR [1]) [kcal mol^−1 HA^−1] | Ki (human A1AR [1]; [6]) [nM] | ΔΔG Experimental A1AR (human A1AR [1]; [7]) | ΔΔG Experimental A2AAR (human A2AAR; reference compound 5) | improvement of A1AR affinity (human A1AR [1]; compared to compound 1) [fold] | selectivity for the A1AR (human A1AR [2])
1 | O=C(Nc1nc2ccccc2s1)c1ccccc1 [Compound 10] | -8.5 | –1.7 ± 0.1 kcal/mol | 670 ± 80 nM | 0.6 | 2 | -8.8 | 386 ± 43 |  |  |  |  |  |  |  | 
2 | CCc1ccc2sc(NC(=O)C3(C)CCCC3)nc2c1 [Compound 24] | -9.6 |  | 96 ± 13 nM | 22.4 |  | -7.8 | 2150 ± 90 | –1.1 ± 0.1 kcal/mol | 0.2 ± 0.1 kcal/mol |  |  |  |  |  | 
3 | O=C(Nc1nc2ccccc2s1)C1CCCC1 [Compound 9] | -8.5 | –1.7 ± 0.2 kcal/mol |  | 2.6 |  | -7.9 | 1610 ± 110 |  |  | 0.50 | 619 |  |  |  | 
4 | Cc1ccc2nc(NC(=O)C(C)(C)C)sc2c1 [Compound 11] | > -5.5 |  | > 100000 nM | < 0.3 |  | -6.3 | 25800 ± 13200 |  |  |  |  | > 3.5 kcal/mol | 1.7 ± 0.6 kcal/mol |  | 
5 | Cc1ccc2sc(NC(=O)C(C)(C)C)nc2c1 [Compound 13] | -9.8 |  | 76 ± 17 nM | 19.1 |  | -8.0 | 1450 ± 600 |  |  |  |  | –0.8 ± 0.2 kcal/mol | 0.0 ± 0.5 kcal/mol |  | 
6 | O=C(Nc1nc2ccccc2s1)C1CCCCC1 [Compound 7] | -8.2 | –1.4 ± 0.2 kcal/mol | 1080 nM and 1100 nM | 3.2 |  | -7.5 | 3410 ± 950 |  |  |  |  |  |  |  | 
7 | CC(C)C(=O)Nc1nc2ccccc2s1 [Compound 3] | -8.0 | –1.2 ± 0.3 kcal/mol | 1420 nM and 1400 nM | 1.6 |  | -7.7 | 2260 ± 360 |  |  |  |  |  |  |  | 
8 | O=C(Nc1nc2ccccc2s1)C1CC1 [Compound 4] | -7.7 | –0.9 ± 0.2 kcal/mol | 2350 nM and 2400 nM | 1.4 |  | -7.5 | 3270 ± 1140 |  |  |  |  |  |  |  | 
9 | Cc1ccc2sc(NC(=O)C3(C)CCCC3)nc2c1 [Compound 23] | -9.9 |  | 57 ± 15 nM | 9.8 |  | -8.6 | 561 ± 109 | –1.4 ± 0.2 kcal/mol | –0.6 ± 0.1 kcal/mol |  |  |  |  |  | 
10 | CC(C)(C)C(=O)Nc1nc2ccccc2s1 [Compound 5] | -9.0 | –2.2 ± 0.2 kcal/mol |  | 5.0 |  | -8.0 | 1430 ± 230 |  |  | 0.56 | 285 |  |  | 39 | not more selective for the A1AR compared to 1
11 | CC1(C(=O)Nc2nc3cc(C#N)ccc3s2)CCCC1 [Compound 25] | -9.9 |  | 64 ± 6 nM | 27.8 |  | -7.9 | 1780 ± 740 | –1.3 ± 0.1 kcal/mol | 0.1 ± 0.3 kcal/mol |  |  |  |  |  | 
12 | CC(=O)Nc1nc2ccccc2s1 [Compound 1] | -6.8 |  |  | 7.1 |  | -5.6 |  |  |  | 0.52 |  |  |  |  | 7 fold
13 | Cc1cccc2sc(NC(=O)C(C)(C)C)nc12 [Compound 12] | -8.2 |  | 1040 nM and 1000 nM | 6.5 |  | -7.1 | 6750 ± 920 |  |  |  |  | 0.8 ± 0.1 kcal/mol | 0.9 ± 0.1 kcal/mol |  | 
14 | CC(C)(C)C(=O)Nc1nc2cc(Cl)ccc2s1 [Compound 14] | -9.5 |  | 117 ± 11 nM | 11.0 |  | -8.1 | 1290 ± 280 |  |  |  |  | –0.5 ± 0.1 kcal/mol | –0.1 ± 0.2 kcal/mol |  | 
15 | O=C(Nc1nc2ccccc2s1)C12CC3CC(CC1C3)C2 [Compound 8] | -8.7 | –1.9 ± 0.3 kcal/mol | 484 ± 173 nM | 4.0 |  | -7.8 | 1940 ± 220 |  |  |  |  |  |  |  | 
16 | COc1ccc2sc(NC(=O)C(C)(C)C)nc2c1 [Compound 18] | -9.4 |  | 152 ± 57 nM | 10.5 |  | -8.0 | 1600 ± 510 |  |  |  |  | –0.4 ± 0.3 kcal/mol | 0.1 ± 0.5 kcal/mol |  | 
17 | CC1(C(=O)Nc2nc3ccccc3s2)CCCC1 [Compound 20] | -9.6 |  |  |  |  | -8.6 | 572 ± 64 | –1.1 ± 0.1 kcal/mol | –0.6 ± 0.1 kcal/mol |  | 95 |  |  |  | 6 fold
18 | CC(C)(C)C(=O)Nc1nc2cc(C#N)ccc2s1 [Compound 17] | -9.1 |  | 223 ± 22 nM | 25.2 |  | -7.2 | 5630 ± 740 |  |  |  |  | –0.2 ± 0.1 kcal/mol | 0.8 ± 0.1 kcal/mol |  | 
19 | CCC(CC)C(=O)Nc1nc2ccccc2s1 [Compound 6] | -8.2 | –1.4 ± 0.1 kcal/mol | 1040 nM and 1000 nM | 2.8 |  | -7.6 | 2920 ± 720 |  |  |  |  |  |  |  | 
20 | CC1(C(=O)Nc2nc3cc(Cl)ccc3s2)CCCC1 [Compound 21] | -10.5 |  | 23 ± 6 nM | 11.0 |  | -9.1 | 252 ± 89 | –2.0 ± 0.2 kcal/mol | –1.1 ± 0.2 kcal/mol |  |  |  |  |  | 
21 | CCC(=O)Nc1nc2ccccc2s1 [Compound 2] | -7.5 | –0.7 ± 0.3 kcal/mol | 3460 nM and 3500 nM | 1.8 |  | -7.1 | 6190 ± 3430 |  |  |  |  |  |  |  | 
22 | COc1cccc2sc(NC(=O)C(C)(C)C)nc12 [Compound 19] | -9.4 |  | 133 ± 10 nM | 1.5 |  | -9.2 | 199 ± 70 |  |  |  |  | –0.5 ± 0.1 kcal/mol | –1.2 ± 0.2 kcal/mol |  | 
23 | CCc1ccc2sc(NC(=O)C(C)(C)C)nc2c1 [Compound 16] | -9.4 |  | 143 ± 20 nM | 23.6 |  | -7.5 | 3380 ± 530 |  |  |  |  | –0.4 ± 0.1 kcal/mol | 0.5 ± 0.4 kcal/mol |  | 
